Reference: patent US12351830B2, “Method for maintaining and amplifying colon cancer stem cells and method for inducing colon cancer organoid” (NATIONAL UNIVERSITY CORPORATION KOBE UNIVERSITY, priority 2017, dated 2025)

Experiments:
Format in all cases: cell-based, human
2nd V50-OKS cells [1] = test: flat plane adhesion culture of induced colon cancer stem cells, cell count and morphology; details: for effect in flat plane adhesion culture (morphology, number of cells): VPA 1 mM, CHIR99021 3 μM, 5 days
Experimental: A human colon cancer cell line (SW480) and Plat-A amphotropic retrovirus packaging cells were obtained from the ATCC collection and Cell Biolabs (San Diego, CA, USA), respectively. Both cells were maintained in Dulbecco's modified Eagle's medium (DMEM) (Nacalai Tesque, Kyoto, Japan) supplemented with 10% fetal bovine serum (FBS) (Life Technologies) and penicillin (100 Units/ml) and streptomycin (100 μg/ml) (Life Technologies) at 37° C. in a humidified 5% […] incubator. In Plat-A culture, 1 μg/ml of puromycin (Nacalai Tesque) and 10 μg/ml of blasticidin (Funakoshi) were added. HUVECs (Lonza) and human MSCs (Lonza) were maintained in endothelial growth medium (Lonza) at 37° C. in a humidified 5% CO2 incubator. The cells were treated with FK506 (Sigma, 25 μM), VPA (WAKO, 1 mM) or CHIR99021 (Funakoshi, 3 μM) for 5 days. Thereafter, the cells were detached from the culture dish by an enzyme treatment, dispersed and the number of the cells was counted with Countess system (Invitrogen). The human induced pluripotent stem (hiPS) cells used as a control were generated from human peripheral blood mononuclear cells in the laboratory.
Culture of SW480 cells after introduction of reprogramming factor, isolation of induced colon cancer stem cell (hereinafter to be also referred to as “colon iCSC”)-enriched cell population and induction of colon cancer organoid were performed according to the schedule described in FIG. 6. Establishing culture of colon iCSC and sorting of colon iCSC-enriched cell population were performed according to the method described in the above-mentioned non-patent document 3 (flow cytometry utilizing Hoechst33342 eliminating ability in the presence of 50 μM verapamil). Hereinafter colon iCSC-enriched cell population (cell population not labeled with Hoechst33342 in the presence of 50 μM verapamil; V50 cell) obtained by the first sorting is sometimes to be abbreviated as 1st V50 cell (or 1st V50-OKS cell), and the V50 cell obtained by the second sorting is sometimes to be abbreviated as 2nd V50 cell (or 2nd V50-OKS cell). On the other hand, the cell population labeled with Hoechst33342 in the presence of 50 μM verapamil is sometimes to be abbreviated as non V50cell or non V50-OKS cell. Colon cancer organoid was induced by the method described in the below-mentioned sphere formation assay.
SW480 cells or 2nd V50 cells were subjected to flat plane adhesion culture in the presence of FK506 (Sigma) for 5-15 days, and the cell number was counted with Countess (Invitrogen) system. Alternatively, the cells were subjected to flat plane adhesion culture in the presence of FK506, and then suspension culture in the presence or absence of FK506 to form spheres. The sphere number was counted with Countess (Invitrogen) system. Unless otherwise specified, FK506 was used at a concentration of 25 μM in this Example.
Duplexed Stealth siRNA (Invitrogen) were used for reference examples and were transduced to the cells according to the manufacturer's protocol.

2nd V50-OKS cells [2] = test: sphere formation assay, induced colon cancer stem cells; details: VPA 1 mM, CHIR99021 3 μM, 10 days
Experimental: The cells were transferred to Ultra Low Attachment plates (Corning) in serum-free DMEM containing 10 ng/ml bFGF (WAKO), 10 μg/ml human insulin (CST), 100 μg/ml human transferrin (Roche) and 100 μg/ml BSA (Nacalai Tesque), and incubated at 37° C. in a 5% CO2 incubator for 10 days. The sphere count was calculated based on the sphere size which was larger than 100 μm. FK506 (25 μM), VPA (1 mM) or CHIR99021 (3 μM) were added to the medium and the spheres were then treated for 10 days. SW480 cells or 2nd V50 cells were subjected to flat plane adhesion culture in the presence of FK506 (Sigma) for 5-15 days, and the cell number was counted with Countess (Invitrogen) system. Alternatively, the cells were subjected to flat plane adhesion culture in the presence of FK506, and then suspension culture in the presence or absence of FK506 to form spheres. The sphere number was counted with Countess (Invitrogen) system. Unless otherwise specified, FK506 was used at a concentration of 25 μM in this Example.

2nd V50 cells = test: colony formation assay; details: 1 mM VPA, 3 μM CHIR or 25 μM FK506, day 12
Experimental: 2nd VP50 cells produced by 3 independent experiments were seeded in a 6 well plate at a density of 2×10^3 cells/well. The next day, the medium was changed to a medium not added with the compound, or a medium added with 1 mM VPA, 3 μM CHIR or 25 μM FK506. Thereafter, the medium was changed every 2 days or 3 days. On day 12, the cells were fixed with methanol, stained with crystal violet and the colonies were counted using a stereoscopic microscope.

NFATc3-GFP = test: localization of NFATc3-GFP in 2nd V50-OKS cells; details: 2nd V50-OKS cells treated with compound
Text: Retroviral vectors separately encoding OCT3/4, SOX2 or KLF4 in pMXs based vectors (pMXs-OCT3/4, pMXs-SOX2, pMXs-KLF4) were obtained from Addgene. Therefore, using these vectors, the polycistronic retroviral vector encoding OCT3/4, KLF4 and SOX2 (pMXs-OKS) was designed. That is, human OCT3/4, KLF4 and SOX2 were amplified by polymerase chain reaction (PCR) with primers containing the 2A sequences of Thosea asigna virus (T2A) and cloned into EcoRI site of pMXs vector using the In-fusion HD cloning system (Clontech). To generate pMXs-NFATc3-GFP construct, NFATc3-GFP cDNA were PCR amplified using HA-NFAT4 (3-407)-GFP (purchased from Addgene #21664) as a template and cloned into EcoRI-Notl site of pMXs-vector).
Finally, the cellular localization of NFAT after the treatment of FK506, VPA and CHIR in the iCSCs was examined. NFATc3 fused to green fluorescent protein (NFATc3-GFP; Aramburu J, et al., Science, 1999; 285:2129-33, Peuker K, et al., Nat Med, 2016, 22:506-15) was retrovirally introduced into 2nd V50-OKS cells. In the 2nd V50-OKS cells without any compounds and those with FK506, it was observed that NFATc3-GFP localized in the cytoplasm. In contrast, localization of NFATc3-GFP was found in the nuclei of the 2nd V50-OKS cells treated with VPA and CHIR (FIG. 16). […] This is opposite to inhibition of calcineurin via cytoplasm-nuclear translocation of NFAT.

2nd V50-OKS-SW480 cells = test: 5-FU-chemoresistance analysis; details: 1 and 50 μg/ml 5-FU, 72 hr, relative to cells without 5-FU, n=3
Experimental: A total of 6×10^4 cells were seeded in 12-well plates with DMEM containing 0, 1, 50 μg/ml of 5-fluorouracil (5-FU, Kyowa Kirin) respectively. After incubation for 72 hr, the cell viability after 5-FU exposure was measured by the Countess (Invitrogen) system.

SMILES | effect on the cell number (2nd V50-OKS cells [1]; 2nd V50-OKS cultures, FK506 25 μM, 5 days after passage) | total cell number amplification (2nd V50-OKS cells [1]; 2nd V50 cells adhesion cultured with FK506, 10 days) | total cell number amplification (2nd V50-OKS cells [1]; 2nd V50 cells adhesion cultured with FK506, 15 days) | effect in flat plane adhesion culture (morphology, number of cells) (2nd V50-OKS cells [1]) | sphere forming ability (2nd V50-OKS cells [2]) | number of secondary dome-shaped colonies (2nd V50 cells) | cellular localization of NFATc3-GFP (NFATc3-GFP) | viability of 2nd V50-OKS-SW480 cells in the presence of 5-FU compared with parental SW480 cells (2nd V50-OKS-SW480 cells)
C=CC[C@@H]1/C=C(\C)C[C@H](C)C[C@H](OC)[C@H]2O[C@@](O)(C(=O)C(=O)N3CCCC[C@H]3C(=O)O[C@H](/C(C)=C/[C@@H]3CC[C@@H](O)[C@H](OC)C3)[C@H](C)[C@@H](O)CC1=O)[C@H](C)C[C@@H]2OC [FK506, FK506 (tacrolimus)] | no significant effect | about 100 times | about 1000 times | – | – | – | – | –
CCCC(CCC)C(=O)O [VPA, valproic acid] | – | – | – | the same effect as siRNA | significantly suppressed | decreased | nuclei | –
Cc1c[nH]c(-c2cnc(NCCNc3ccc(C#N)cn3)nc2-c2ccc(Cl)cc2Cl)n1 [CHIR99021] | – | – | – | the same effect as siRNA | significantly suppressed | decreased | nuclei | –
O=c1[nH]cc(F)c(=O)[nH]1 [5-FU, 5-fluorouracil] | – | – | – | – | – | – | – | significantly higher
